Reference: article PMC4661110 (Bioorganic & medicinal chemistry, 2015)
Converted amounts (≈) assume the structure as drawn.

Experiments:
S. aureus Mu50 [1] = experiment: Bacteriostatic effect; format: cell-based; conditions: for MIC fold higher than that of SCA-50: S. aureus Mu50
[2] = test system: S. aureus NorA and MepA efflux pump strains; format: cell-based; conditions: confirmed by MIC, Table 3
SaSecA1 [3] = target: T1, SaSecA1 (Staphylococcus aureus, UniProt O06446); format: biochemical; conditions: liposomes-oocytes, different concentrations of ATP
T1 sequence (O06446 1-843): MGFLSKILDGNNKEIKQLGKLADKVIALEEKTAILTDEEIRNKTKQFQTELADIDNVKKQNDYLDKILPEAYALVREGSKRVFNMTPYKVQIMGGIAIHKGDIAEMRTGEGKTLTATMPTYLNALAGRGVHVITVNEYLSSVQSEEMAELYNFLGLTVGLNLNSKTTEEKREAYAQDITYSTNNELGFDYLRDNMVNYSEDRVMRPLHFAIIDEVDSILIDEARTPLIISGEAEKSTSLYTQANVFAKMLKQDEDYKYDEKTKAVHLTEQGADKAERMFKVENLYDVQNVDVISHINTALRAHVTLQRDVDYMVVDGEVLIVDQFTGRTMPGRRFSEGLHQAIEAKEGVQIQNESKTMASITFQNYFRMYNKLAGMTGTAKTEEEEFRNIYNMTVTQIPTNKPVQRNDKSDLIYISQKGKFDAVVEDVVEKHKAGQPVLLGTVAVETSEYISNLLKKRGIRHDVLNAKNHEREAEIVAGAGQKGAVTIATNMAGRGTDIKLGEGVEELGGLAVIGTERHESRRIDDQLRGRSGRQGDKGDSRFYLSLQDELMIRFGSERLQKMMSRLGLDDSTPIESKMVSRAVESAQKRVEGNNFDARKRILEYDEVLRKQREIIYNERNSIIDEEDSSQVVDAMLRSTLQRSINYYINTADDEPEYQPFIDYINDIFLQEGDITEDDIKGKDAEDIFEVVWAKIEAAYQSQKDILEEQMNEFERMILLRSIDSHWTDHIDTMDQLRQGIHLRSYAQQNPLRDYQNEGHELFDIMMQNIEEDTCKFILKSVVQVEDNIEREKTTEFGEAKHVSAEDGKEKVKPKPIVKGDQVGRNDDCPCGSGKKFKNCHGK

S. aureus ATCC 6538 = experiment: Effects of light on bactericidal result; format: cell-based; conditions: 40 µM, 2 hr, dark vs light
[4] = test system: secretion of α-hemolysin, enterotoxin B, and TSST-1 by S. aureus Mu50; format: cell-based
S. aureus Mu50 [5] = format: cell-based; conditions: 10 µM, mid-log phase (OD600 ≈ 2.6), first 15 hr
SaSecA1 [6] = target: T1, SaSecA1; experiment: Protein pull down assay from whole cell lysate; format: binding; conditions: 400 µM, S. aureus ATCC 6538 lysate, Streptavidin magnetic beads, Western blot

## CC1(C)S[C@@H]2[C@H](NC(=O)[C@H](N)c3ccccc3)C(=O)N2[C@H]1C(=O)O [Ampicillin]
S. aureus Mu50 [1]
  MIC fold higher than that of SCA-50: 250 fold

## CC[C@H]1OC(=O)[C@H](C)[C@@H](O[C@H]2C[C@@](C)(OC)[C@@H](O)[C@H](C)O2)[C@H](C)[C@@H](O[C@@H]2O[C@H](C)C[C@H](N(C)C)[C@H]2O)[C@](C)(O)C[C@@H](C)C(=O)[C@H](C)[C@@H](O)[C@]1(C)O [Erythromycin]
S. aureus Mu50 [1]
  MIC fold higher than that of SCA-50: 250 fold

## NC[C@H]1O[C@H](O[C@H]2[C@H](O)[C@@H](O[C@H]3O[C@H](CO)[C@@H](O)[C@H](N)[C@H]3O)[C@H](N)C[C@@H]2N)[C@H](O)[C@@H](O)[C@@H]1O [Kanamycin]
S. aureus Mu50 [1]
  MIC fold higher than that of SCA-50: 250 fold

## O=C([O-])c1c(Cl)c(Cl)c(Cl)c(Cl)c1-c1c2cc(I)c(=O)c(I)c-2oc2c(I)c([O-])c(I)cc12.[Na+].[Na+] [RB, Rose Bengal]
[2]
  substrate of NorA efflux pump: substrate of NorA

## CO[C@H]1/C=C/O[C@@]2(C)Oc3c(C)c(O)c4c(O)c(c(/C=N/N5CCN(C)CC5)c(O)c4c3C2=O)NC(=O)/C(C)=C\C=C\[C@H](C)[C@H](O)[C@@H](C)[C@@H](O)[C@@H](C)[C@H](OC(C)=O)[C@@H]1C [Rifampicin]
S. aureus Mu50 [1]
  MIC fold higher than that of SCA-50: 250 fold

## CCCCCCC1c2ccc(O)cc2Oc2cc(O)ccc21 [SCA-50]
SaSecA1 [3]
  manner of inhibition of translocation related ATPase activity of SaSecA1: non-competitive
S. aureus Mu50 [1]; Staphylococcus aureus, MU50, read-out: MIC against S. aureus Mu50
  MIC: 12.5 µM (≈ 3.73 µg/mL)
S. aureus ATCC 6538
  effect of light on bactericidal effects: not obviously affected by light
[4]
  amount of TSST-1 in the supernatant: significantly decreased
  amount of enterotoxin B in the supernatant: significantly decreased
  amount of α-hemolysin in the supernatant: significantly decreased
[4]; 10 µM
  amount of extracellular proteins in the supernatant: reduced the amount of many extracellular proteins
S. aureus Mu50 [5]
  OD600 reading compared with control: didn’t obviously change

## O=C(CCCC[C@@H]1SC[C@@H]2NC(=O)N[C@@H]21)NCCCCCCC1c2ccc(O)cc2Oc2cc(O)ccc21 [SCA-254]
SaSecA1 [6]
  pull down of SaSecA1 from whole cell lysates: could recognize and pull down SaSecA1

## CN[C@@H](CC(C)C)C(=O)N[C@H]1C(=O)N[C@@H](CC(N)=O)C(=O)N[C@H]2C(=O)N[C@H]3C(=O)N[C@H](C(=O)N[C@@H](C(=O)O)c4cc(O)cc(O)c4-c4cc3ccc4O)[C@H](O)c3ccc(c(Cl)c3)Oc3cc2cc(c3O[C@H]2O[C@@H](CO)[C@H](O)[C@@H](O)[C@@H]2O[C@@H]2C[C@@](C)(N)[C@@H](O)[C@@H](C)O2)Oc2ccc(cc2Cl)[C@H]1O [Vancomycin]
S. aureus Mu50 [1]
  MIC fold higher than that of SCA-50: two-fold higher

## polymyxin B [Polymxin B]
S. aureus Mu50 [1]; Table 2, n = 6
  Bacteriostatic effect MIC, S. aureus Mu50 (comparison with antibiotics): 31 mg/L
